Like-named read-outs stand apart in the source and are kept apart here.
Key:
[1] = target: T1, human GABAA α2β3γ2 (Homo sapiens, UniProt P18507+P28472+P47869); experiment: cell-based; assay type: cell-based
T1 construct: expressed in transfected cells; host or cells: CHO-K1 (ATCC, CCL-61), transient electroporation with MaxCyte STX, cryopreserved assay-ready cells
Protocol: The cDNA of YFP (Genbank accession number AY818378) with H148Q and I152L mutations was inserted into the pcDNA3.1 vector using 5′ BamHI and 3′ NotI sites. Human GABAA subunits α2, β3 and γ2 (Genbank accession numbers; α2 NM_000807, β3 NM_000814, γ2 NM_000816) were inserted into pGen-IRES-neo2 vectors using NotI 5′ and 3′ sites.
CHO-K1 cell line (ATCC, CCL-61) was cultured in Ham's F-12 medium supplemented with 10% fetal bovine serum and incubated at 37°C and 5% CO2. Transient transfection was performed using MaxCyte STX electroporation instrument (MaxCyte, Inc.) with CHO cell line specific electroporation protocol. The cells were split one day prior to electroporation to ensure that cells were in the log phase growth at time of transfection. Cells were harvested with Accutase (PAA Laboratories), pelleted at 250 g for 10 minutes, rinsed with MaxCyte Electroporation Buffer (MaxCyte, Inc.), pelleted again and resuspended in MaxCyte Electroporation Buffer at a density of 1×10^8 cells/ml. CHO-K1 cells were electroporated simultaneously with four plasmids using a total amount of 300 µg DNA per 1×10^8 cells; YFP-H148Q/I152L (150 µg) and GABAA (72.5 µg α2, […] and 72.5 µg γ2) plasmids. Following electroporation, cells were incubated at 37°C and 5% CO2 for 20 minutes to recover. Cells were then diluted in culture medium and centrifuged 250 g for 10 minutes. Pelleted cells were resuspended to 5–10×10^6 cells/ml in Ham's F12 with 20% fetal bovine serum and 10% DMSO, and cryopreserved using controlled-rate cryo containers (Nalgene, Thermo Scientific). Cryopreserved assay-ready cells were used for all experiments.
Cryopreserved transiently transfected cells were thawed and plated in 384-well poly-D-lysine-coated plates at a density of 15000 cells/well using a Multidrop Combi Reagent Dispenser (Thermo Scientific). After 24 h incubation at 37°C and 5% CO2, cells were washed three times on an ELx405 Select Deep Well Microplate Washer (BioTEK), exchanging 50 µl culture medium with 30 µl HBSS buffer supplemented with 20 mM Hepes. Plates were incubated with buffer for 1 h at 37°C and 5% CO2. Cell plates were assayed on a FLIPR Tetra (Molecular Devices) using excitation filter of 470–495 nm and emission filter of 515–575 nm. Starting with 30 µl buffer in each well, cells were pre-incubated with 10 µl compound for 15 minutes. […] Compounds were initially solubilized to a concentration of 10 mM in DMSO and then diluted in HBSS buffer with 20 mM Hepes. Final DMSO concentration in the assay was 0.02% for modulators and at 1% for Picrotoxin and Bicuculline.
Data at 1–10 s was adjusted to a baseline of 100% and results were then extracted as % quench at 120 s. % quench is defined as (Finit – Ffinal)/Finit*100 where Finit and Ffinal are the initial and final values of fluorescence respectively. […] Curve fits were performed using least-squares fitting routine (GraphPad Prism 5, GraphPad Software Inc.).
The 95% confidence interval was calculated as 2× this standard error. Taking the anti-log converts this to a fold change (ratio) between two EC50 values.

[2] = test system: α2β3γ2 ion channel subtype; design: method as in PMID 19090692; settings: VSD assay; cited from earlier work
[3] = test system: GABA α2β3γ2; design: method as in PMID 14680756, PMID 16183706; settings: mouse fibroblast L(tk−) cells; cited from earlier work
[4] = 1 µM modulator, p<0.05, difference in pEC50 ≥0.15 significant

T1 sequence (P47869 29-451): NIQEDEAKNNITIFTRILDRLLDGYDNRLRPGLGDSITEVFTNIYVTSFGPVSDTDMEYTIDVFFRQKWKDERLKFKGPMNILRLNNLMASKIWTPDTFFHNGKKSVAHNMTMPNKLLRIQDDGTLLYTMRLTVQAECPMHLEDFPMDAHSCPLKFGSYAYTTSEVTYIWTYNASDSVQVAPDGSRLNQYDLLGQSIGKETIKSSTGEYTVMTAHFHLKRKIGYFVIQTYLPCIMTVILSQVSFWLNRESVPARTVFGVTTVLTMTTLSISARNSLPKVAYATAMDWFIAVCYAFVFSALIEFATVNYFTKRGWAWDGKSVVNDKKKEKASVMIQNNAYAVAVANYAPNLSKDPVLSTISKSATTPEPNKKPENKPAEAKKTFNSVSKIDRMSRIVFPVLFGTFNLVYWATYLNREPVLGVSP
T1 sequence (P28472 26-473): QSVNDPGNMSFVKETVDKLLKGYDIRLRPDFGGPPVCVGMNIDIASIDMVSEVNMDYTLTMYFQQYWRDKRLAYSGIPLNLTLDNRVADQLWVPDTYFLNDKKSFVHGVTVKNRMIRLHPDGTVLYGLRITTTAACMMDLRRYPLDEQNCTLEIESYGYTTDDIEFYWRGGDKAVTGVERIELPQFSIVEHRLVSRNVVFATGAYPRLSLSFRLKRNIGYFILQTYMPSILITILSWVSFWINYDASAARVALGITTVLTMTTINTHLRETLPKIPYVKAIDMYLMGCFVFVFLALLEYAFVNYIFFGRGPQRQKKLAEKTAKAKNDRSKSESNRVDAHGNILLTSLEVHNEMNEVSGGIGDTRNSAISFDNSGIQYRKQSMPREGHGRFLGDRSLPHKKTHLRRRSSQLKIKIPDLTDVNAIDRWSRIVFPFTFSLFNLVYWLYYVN
T1 sequence (P18507 40-467 isoform P18507-1 limits assumed): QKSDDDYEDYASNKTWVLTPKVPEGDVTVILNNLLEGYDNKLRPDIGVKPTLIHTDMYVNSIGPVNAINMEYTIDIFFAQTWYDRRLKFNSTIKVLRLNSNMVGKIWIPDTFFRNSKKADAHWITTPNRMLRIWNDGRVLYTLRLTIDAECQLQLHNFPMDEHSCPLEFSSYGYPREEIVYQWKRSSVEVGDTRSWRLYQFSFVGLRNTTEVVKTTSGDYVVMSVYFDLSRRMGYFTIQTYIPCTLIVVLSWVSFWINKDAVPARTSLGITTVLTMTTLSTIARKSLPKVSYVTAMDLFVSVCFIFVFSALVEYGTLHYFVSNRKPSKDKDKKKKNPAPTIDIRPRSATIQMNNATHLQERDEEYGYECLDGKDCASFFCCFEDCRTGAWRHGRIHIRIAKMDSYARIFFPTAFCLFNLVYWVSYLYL

## CCCN(CCC)C(=O)Cc1c(-c2ccc(Cl)cc2)nc2ccc(Cl)cn12 [Alpidem]
[1]; 1 µM modulator, 95% confidence
  allosteric effect on GABA: significant positive allosteric effect
[1]; [4]
  Significance 95% confidence of pEC50 difference vs GABA alone: Significant difference

## CN1CCc2cc3c(cc2[C@H]1[C@@H]1OC(=O)c2c1ccc1c2OCO1)OCO3 [Bicuculline]
[1]
  IC50: 2140 nM

## CN1C(=O)CC(=O)N(c2ccccc2)c2cc(Cl)ccc21 [Clobazam]
[1]; 1 µM modulator, 95% confidence
  allosteric effect on GABA: significant positive allosteric effect
[1]; [4]
  Significance 95% confidence of pEC50 difference vs GABA alone: Significant difference

## O=C1CC(=O)N(c2ccccc2)c2cc(Cl)ccc2N1 [Desmethyl-clobazam]
[1]; [4]
  Significance 95% confidence of pEC50 difference vs GABA alone: non-significant

## CN1C(=O)CN=C(c2ccccc2)c2cc(Cl)ccc21 [Diazepam]
[1]
  GABA EC50 shift: 1.7 fold
  Significance 95% confidence of pEC50 difference vs GABA alone: Significant difference
  allosteric effect on GABA: significant positive allosteric effect
  modulation of GABA EC20 quench: significant increase
[2]
  pEC50 difference (GABA with modulator vs GABA alone): 0.41

## Cn1ncnc1COc1nn2c(-c3cc(F)ccc3F)nnc2cc1C(C)(C)C [L-838417]
[1]; 1 µM modulator, 95% confidence
  allosteric effect on GABA: not able to detect any significant allosteric modulation
[1]; [4]
  Significance 95% confidence of pEC50 difference vs GABA alone: non-significant
[3]
  relative in vitro efficacy, potentiation of GABA EC20 compared to 100% response from chlordiazepoxide: 34%
[2]
  modulation of GABA signal: detected modulation of GABA signal

## O=C1Nc2ccc(Cl)cc2C(c2ccccc2Cl)=NC1O (centres unmarked) [Lorazepam]
[1]; 1 µM modulator, 95% confidence
  allosteric effect on GABA: significant positive allosteric effect
[1]; [4]
  Significance 95% confidence of pEC50 difference vs GABA alone: Significant difference

## CCn1ncnc1COc1nn2c(-c3ccccc3F)nnc2cc1C(C)(C)C [TPA-023, 7-(1,1-dimethylethyl)-6-(2-ethyl-2H-1,2,4-triazol-3-ylmethoxy)-3-(2-fluorophenyl)-1,2,4-triazolo z[4,3-b]pyridazine]
[1]; 1 µM modulator, 95% confidence
  allosteric effect on GABA: not able to detect any significant allosteric modulation
[1]; [4]
  Significance 95% confidence of pEC50 difference vs GABA alone: non-significant
[1]; EC20 of GABA with 1 µM modulator, 10 mM I−
  modulation of GABA EC20 quench: No significant change
[3]
  relative in vitro efficacy, potentiation of GABA EC20 compared to 100% response from chlordiazepoxide: 11%

## Picrotoxin
[1]; 100 µM, 15 min prior to buffer with different I− concentrations
  effect on basal (agonist-independent) YFP quench: reduced basal quench to background levels
[1]; 1 mM, EC80 of GABA in 10 mM NaI buffer
  effect on YFP quench in cells activated with EC80 of GABA: blocked YFP quench
